We go through 2 compounds from paper PMC10814725, “In Vitro Anti-Inflammatory Study of Limonoids Isolated from Chisocheton Plants” (Current Issues in Molecular Biology, 2024).

Read-outs that look alike come from different tables or passages of the source.

The test system of series [1] is MCP-1. Kind of series: ELISA of MCP-1 production in LPS-stimulated THP-1 cells. In kind it is cell-based, human. Particulars: for Effect on MCP-1 level: 10 µM, compared to LPS (+)-stimulated group, THP-1 cells; for IC50: Homo sapiens, LPS-stimulated (10 ng/mL) THP-1 cells, 1, 5, 10, 20 µM, 18 h; for MCP-1 SI (selectivity index, CC50/IC50): THP-1 CC50 / MCP-1 IC50. The method, then:
The logarithmic growth phase of THP-1 cells was achieved by seeding in 96-well plates at a density of 5 × 10^4 cells/well and differentiated for 24 h in the presence of PMA (0.5 μM solution in medium). After 24 h of incubation, the culture medium was removed from the 96-well plate and the cells were washed with PBS. […] The cells were pretreated with 17 limonoids at the corresponding concentration for 1 h, followed by the addition of LPS (10 ng/mL) and then incubation at 37 °C for 18 h. Finally, 50 μL of each culture supernatant solution was taken to determine the concentrations of IL-6, MCP-1, and IL-1β using the corresponding commercially available human ELISA kits following the manufacturer’s instructions. The analyte concentration in the supernatant was measured in pg/mL, and the inhibition level was expressed as a fold change compared to the LPS (−) control group. To determine the IC50 value, the dose-response data were normalized to the LPS-stimulated-only group, and the percentage of inhibition was calculated using the following formula: % Inhibition=(Absorbance of LPS+ control−Absorbance of compound treatment with LPS)/(Absorbance of LPS+ control−Absorbance of LPS− control)×100
Furthermore, the % inhibition data were interpolated into linear equations to determine the IC50 values.
Background: ELISA stands for enzyme-linked immunosorbent assay.

A short description of series [2]: Cell viability by CCK-8, HEK-Blue hTLR4 cells. In kind it is cell-based. As to conditions: human. Summed up: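 CCK-8 read-out. HEK-Blue hTLR4 cells (2 × 10^4/well) serum-starved 24 h, then in high-glucose D-MEM with 0.1% FBS pretreated ±20 µM limonoids for 1 h before 10 ng/mL LPS; CCK-8 (10% v/v) added after 18 h and incubated 1 h at 37 °C. RAW264.7 viability measured likewise with CCK-8.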

Series [3] can be described thus: Cell viability by CCK-8, THP-1 cells. As to conditions: human, PMA-differentiated THP-1 cells; for CC50 at 18 h: concentration causing 50% cytotoxicity against THP-1 cells. In kind it is cell-based. In outline:
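THP-1 cells seeded at 5 × 10^4 cells/well in 96-well plates were differentiated with 0.5 μM PMA for 24 h, washed with PBS, and held overnight at 37 °C in RPMI-1640 containing 0.1% FBS and 1% penicillin–streptomycin. After 1 h compound pretreatment and 18 h further incubation, 10% (v/v) CCK-8 was added for 1 h. Absorbance was read at 405 nm, and background-corrected viability was expressed relative to untreated control cells.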

The subject of series [4] is phosphorylated-p38 MAPK. Briefly: Western blotting of phosphorylated-p38 MAPK in LPS-stimulated THP-1 cells. In kind it is cell-based, human. As to conditions: 10 µM, LPS 10 ng/mL, 18 h, compared to LPS (+) group. The method, then:
THP-1 cells were seeded at a density of 1 × 10^6 cells/well in 24-well plates. The cells were then pretreated with a concentration of 10 µM of compounds 3, 5, 9, or 15 for 1 h. Subsequently, LPS (10 ng/mL) was added to the cells, which were incubated for 18 h. The protein concentrations were determined using a bicinchoninic acid (BCA) assay kit.
For Western blot analysis, proteins were separated by SDS-PAGE and transferred onto a polyvinylidene fluoride (PVDF) membrane. The membranes were blocked with 2.5% BSA in Tris-buffered saline-Tween (TBST) for 1 h at room temperature. After three washes with TBST, the membranes were incubated with a diluted primary antibody solution (anti-phosphorylated-p38 MAPK or anti-p38 MAPK) at a 1:1000 dilution for 1 h at room temperature. After three washes with TBS-T, the membranes were incubated with a secondary antibody conjugated to horseradish peroxidase (HRP; 1:4000 dilution) for 30 min at room temperature and subsequently detected by chemiluminescence. Finally, the bands were visualized and quantified using an ImageQuant 800 GxP system (Cytiva, MA, USA). The results were expressed as ratios relative to the reference protein β-actin.
On the technique in general: In western blotting, separated proteins are transferred to a membrane and probed.

Series [5] deals with TNF-α, IL-6, IL-1β, and MCP-1. Kind of series: ELISA of pro-inflammatory markers overall (TNF-α, IL-6, IL-1β, MCP-1) in LPS-stimulated THP-1 cells. Format: cell-based. As to conditions: Homo sapiens, read-out: Overall IC50 values for the evaluated pro-inflammatory markers. Summed up: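 PMA (0.5 μM)-differentiated THP-1 cells, rested overnight in 0.1% FBS medium, pretreated with compound 1 h, then LPS (10 ng/mL) for 18 h at 37 °C. Supernatant cytokines measured by human ELISA (pg/mL); % inhibition normalised to LPS+ and LPS− controls, IC50 by linear interpolation.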

[6] abbreviates: Viability Cell (%) HEK-Blue hTLR4 LPS-Induced (10 ng/mL).
[7] abbreviates: Viability Cell (%) HEK-Blue hTLR4 Without LPS.
Where [8] appears, read: LPS 10 ng/mL, read-out: Viability Cell (%) THP-1 LPS-Induced (10 ng/mL).
[9] abbreviates: without LPS, read-out: Viability Cell (%) THP-1 Without LPS.

`CC(=O)O[C@H]1[C@@H](O)[C@@]2(C)C3=CC[C@@H](c4ccoc4)[C@]3(C)CC[C@@H]2[C@@]2(C)C=CC(=O)C(C)(C)[C@H]12` [Compound 3, 6α-O-acetyl-7-deacetylnimocinol]: the “Effect on MCP-1 level” value in series [1] is “significantly reduced”. The IC50 is 2.11 µM in series [1] and under 20 µM in series [5]. The “MCP-1 SI (selectivity index, CC50/IC50)” value in series [1] worked out at 9.61. Besides, the viability at 18 h, 20 µM was determined as 6.79 ± 6.22% in series [2] (setting [6]) and 20.7 ± 3.08% in series [2] (setting [7]). In addition, the viability at 18 h, 10 µM in series [3] (setting [8]) and in series [3] (setting [9]) was over 99.9% in each case. Besides, in series [3], it took 20.3 µM to reach half-maximal cytotoxicity (CC50 at 18 h). The “Effect on p-p38 MAPK levels” value in series [4] is reported as “significantly suppressed”.

For the compound `CC(=O)O[C@H]1[C@@H](OC(C)=O)[C@@]2(C)C3=CC[C@@H](c4ccoc4)[C@]3(C)CC[C@@H]2[C@@]2(C)C=CC(=O)C(C)(C)[C@H]12` [Compound 5, dysobinin], the “Effect on MCP-1 level” value in series [1] is reported as “significantly reduced”. Further, the half-maximal inhibitory concentration (IC50) was 0.87 µM in series [1] and under 20 µM in series [5]. Further, the “MCP-1 SI (selectivity index, CC50/IC50)” value in series [1] came to 16.76. Further, the viability at 18 h, 20 µM came out at 23.6 ± 2.61% in series [2] (setting [6]) and 43.3 ± 6.02% in series [2] (setting [7]). For the same compound, the viability at 18 h, 10 µM in series [3] (setting [8]) came to 52 ± 6.51%; in series [3] (setting [9]), 66.7 ± 6.02%. Further, it took 14.6 µM to reach half-maximal cytotoxicity in series [3] (CC50 at 18 h). The “Effect on p-p38 MAPK levels” value in series [4] is “significantly suppressed”.

In general, IC50 refers to the point on the concentration scale where inhibition reaches its midpoint. Usually CC50 stands for the concentration at which the toxic effect on the cells reaches its halfway point. A higher CC50 goes with better tolerance by the cells.
